Literature values in US20240335440A1, “COMBINATION THERAPY COMPRISING A PKC INHIBITOR AND A C-MET INHIBITOR” (IDEAYA BIOSCIENCES, INC., priority 2021, published 2024).
Like-named read-outs stand apart in the source and are kept apart here. Marks after values point to notes of the source that are not given here.

Tests used:
[1] = system: metastatic uveal melanoma (MUM); details: First-Line MUM (n = 31); oral capsules QD
[2] = system: metastatic uveal melanoma (MUM); details: Second-Line + MUM (n = 127)

Q: With COc1cc2nccc(Oc3ccc(NC(=O)C4(C(=O)Nc5ccc(F)cc5)CC4)cc3)c2cc1OC [Cabozantinib] as the compound, how does the “Tolerability (Grade ≥3 Drug-related AE)” value [1] read?
A: 51.6%

Q: For “Tebentafusp: HLA-A2-0201 bi-specific AB, IV infusion (weekly), IMCgp100-102 study”, which “Tolerability (Grade ≥3 Drug-related AE)” value ([2]; HLA-A2-0201 patients, IV infusion weekly) is on record?
A: 46.5%

Q: And the “% Pts with tumor shrinkage” value ([2]; independent review)?
A: 44%^#

Q: And the “Overall response rate by RECIST 1.1” value ([2]; independent review)?
A: 4.7%^#

Q: And the “Progression free survival (mPFS)” value ([2]; independent review)?
A: 2.8 mo.^#
